# Reference: patent US12378178B2, “Oleic acid derivatives as treatments for Friedreich ataxia and inhibitors of ferroptosis” (THE TRUSTEES OF THE UNIVERSITY OF PENNSYLVANIA, priority 2019, dated 2025)
# Entries after “also recorded” stand apart in the source; their conditions may differ.
# Key:
# [1] = test system: human FRDA fibroblast line GM4078; test: Survival of human FRDA fibroblast line GM4078 treated with FAC and BSO; format: cell-based; conditions: for Relative to Oleic Acid (change in survival compared to cells treated with 40 μM oleic acid) / toxicity / activity in dose response: FAC and BSO; for toxicity: compound 40 μM; for activity in dose response: lower concentrations down to 5 μM; for activity: trifluoromethyl ketone and alcohol analogs
# Method: To test the efficacy of the above compounds, they were tested at least at two different concentrations using human FRDA fibroblast line GM4078 treated with FAC and BSO and the change in survival compared to cells treated with 40 μM oleic acid was measured Table 2 has the results of the compounds tested at 40 μM.
# [2] = test system: mouse fibroblast I154F cell lines; test: Rescue of viability of murine I154F fibroblasts treated with FAC+BSO; conditions: for activity in FAC+BSO assay: following FAC+BSO treatment, concentration not given; for Relative to Oleic Acid: 1 = oleic acid, 0.5 = no rescue
# [3] = test system: human FRDA fibroblasts 3816; test: Rescue of human FRDA fibroblasts 3816 treated with erastin; format: cell-based; conditions: erastin 5 μM; for survival: 48 h (erastin alone 32%)
# Method: Addition of O[…] at 5 μM was sufficient to increase survival to 50% (1.5 fold) and at 10 μM and 20 μM survival went up to 80 and 84% (2.5 and 2.6 fold) respectively (FIG. 2B).
# [4] = test system: immortalized myoblast cell line transfected with a frataxin siRNA; test: Lipid peroxidation in immortalized myoblast cell line with frataxin siRNA knock-down; format: cell-based; conditions: compound 5 μM every 48 h post transfection
# Method: Knocking-down frataxin in human fibroblasts results in increased lipid peroxidation, which could be easily measured when the cells were also treated with the ferroptosis inducer RSL-3. To test whether OA200R would be efficacious in the knock-down system, an immortalized myoblast cell line was transfected with a frataxin siRNA or a scrambled siRNA control. A 65% protein loss was achieved over 4 days and a statistically significant increase of lipid peroxidation (1.4 fold) compared to the cells transfected with a scrambled control.
# [5] = test system: murine fibroblast I154F cells; test: Lipid peroxidation in murine fibroblast I154F cells; format: cell-based
# Method: The basal level of lipid peroxides was tested in the murine fibroblast I154F cells compared to the parental line 2F1 and a detectable higher level of lipid peroxides was found in the cells containing a missense frataxin (FIG. 3A).
# [6] = test system: human FRDA fibroblasts 3816; test: Rescue of human FRDA fibroblasts 3816 treated with erastin; format: cell-based; conditions: for survival: 10 μM erastin for 24 h (85% cell death)
# [7] = test system: immortalized human fibroblasts 3665-T cells; test: Survival of immortalized human fibroblasts 3665-T treated with FAC and BSO; format: cell-based; conditions: for survival: FAC and BSO (95% cell death)
# Description: Stereospecific activity of the two enantiomers was confirmed using the immortalized human fibroblasts 3665-T cells, a more severe model of FRDA. […] (FIG. 2A).
# [8] = test system: lipoxygenases (Lox); test: In vitro lipoxygenase activity assay; format: biochemical; conditions: compound at 1 nM and 10 nM; solubility problems precluded higher concentrations
# Method: Oleic acid has been reported to inhibit soybean lipoxygenase, as well as human 15-lipoxygenase, by binding an allosteric site. […] Whether O[…] was inhibiting lipoxygenase activity was tested using an in vitro assay.
# [9] = test system: murine fibroblast I154F cells; test: Rescue from erastin-induced ferroptosis, murine I154F fibroblast model; format: cell-based; conditions: 5 μM erastin for 48 h (erastin alone 44%)
# [10] = test system: PGC1-α; test: PGC1-α expression in human FRDA fibroblasts GM3816; format: cell-based; conditions: compound 16 μM; after 96 h
# Method: Oleic acid, as well as other fatty acids of different length and degree of saturation, binds and activates the peroxisome proliferator-activated receptor gamma (PPAR-γ), a key regulator of glucose and lipid metabolism, which up-regulates PGC1-α, among other targets. Pioglitazone, a PPAR-γ agonist is a thiazolidinedione used to treat type-2 diabetes. […] Human FRDA fibroblasts GM3816 were treated with 10 μM pioglitazone and increased PGC1-α expression was measured starting at 48 h. The expression doubled at 96 h, a time frame sufficient for PGC1-α to have an effect in a typical FAC+BSO experiment, whereas 16 μM oleic acid increased PGC1-α expression only 1.4 fold after 96 h.
# [11] = test system: healthy human fibroblasts with frataxin knockdown; conditions: earlier work referred to in the text; cited from earlier work
compound,measurement,setting,value
CCCCCC/C=C\CCCCCCCCC(O)C(F)(F)F (racemic) [[rac]-HA-200],Relative to Oleic Acid (change in survival compared to cells treated with 40 μM oleic acid),[1]; tested at 40 μM,0.56 ± 0.03
"CCCCCCCC/C=C\CCCCCCCC(O)C(F)(F)F (racemic) [[rac]-OA-200, (Z)-1,1,1-trifluorononadec-10-en-2-ol]",Relative to Oleic Acid (change in survival compared to cells treated with 40 μM oleic acid),[1]; 10 μM printed beside the value,0.67 ± 0.17
same,potency in rescuing cell viability compared with oleic acid,"[1]; cells treated with FAC and BSO, or with erastin",significantly more potent than oleic acid
same,toxicity,[1],slightly toxic
same,activity in dose response,[1],active
CCCCCCCCCC(=O)O [Capric Acid],activity in FAC+BSO assay,[2],inactive
same,Relative to Oleic Acid,"[2]; tested at 40 μM, <0.5 toxic",0.49 ± 0.09
CCCCCC/C=C\CCCCCCCCCC(=O)O [Cis-Vaccenic Acid],efficacy in FAC+BSO assay,[2]; compound 40 μM,comparable to oleic acid
same,Relative to Oleic Acid,"[2]; tested at 40 μM, <0.5 toxic",1.00 ± 0.08
CCCCCCCC/C=C/CCCCCCCC(=O)O [Elaidic Acid],efficacy in FAC+BSO assay,[2]; compound 40 μM,slightly toxic
same,efficacy in FAC+BSO assay,[2]; compound 160 μM,somehow effective
same,Relative to Oleic Acid,"[2]; tested at 40 μM, <0.5 toxic",0.30 ± 0.08
CCCCCCCC/C=C\CCCCCCCCCCCC(=O)O [Erucic add],efficacy in FAC+BSO assay,[2]; compound 40 μM,comparable to oleic acid
same,Relative to Oleic Acid,"[2]; tested at 40 μM, <0.5 toxic",0.93 ± 0.07
CCCCCCCCCC/C=C\CCCCCCCC(=O)O [Gadoleic acid],efficacy in FAC+BSO assay,[2]; compound 40 μM,comparable to oleic acid
same,Relative to Oleic Acid,"[2]; tested at 40 μM, <0.5 toxic",0.77 ± 0.16
CCCCCC/C=C\CCCCCCCCC(=O)C(F)(F)F [HA-210],Relative to Oleic Acid (change in survival compared to cells treated with 40 μM oleic acid),[1]; tested at 40 μM,0.35 ± 0.02
CCCCCCCCCCCC(=O)O [Lauric Acid],activity in FAC+BSO assay,[2],inactive
same,Relative to Oleic Acid,"[2]; tested at 40 μM, <0.5 toxic",0.47 ± 0.12
CCCCCCCCCCCCCC(=O)O [Myristic Acid],Relative to Oleic Acid,"[2]; tested at 40 μM, <0.5 toxic",0.11 ± 0.02
"CCCCCCCC/C=C\CCCCCCC[C@@H](O)C(F)(F)F [OA200R, (R,Z)-1,1,1-trifluorononadec-10-en-2-ol]",increase of survival,"[3]; compound 5 μM, 48 h",1.5 fold
same,survival,[3]; compound 5 μM,50%
same,increase of survival,"[3]; compound 10 μM, 48 h",2.5 fold
same,survival,[3]; compound 10 μM,80%
same,increase of survival,"[3]; compound 20 μM, 48 h",2.6 fold
same,survival,[3]; compound 20 μM,84%
same,potency of (R)-enantiomer relative to (S)-enantiomer,"[1]; rescue of cell viability, assay not given",seven-fold
same,activity,[1]; assay not given,activity resides in the (R) enantiomer
same,decreased lipid peroxidation,[4],20%
same,concentration at which reduction of lipid peroxidation reached statistical significance,[5],5 µM
same,lipid peroxidation,[5]; basal lipid peroxides,reduced lipid peroxidation in a dose-dependent manner
same,survival,[6]; compound 5 μM,48%
same,survival,[6]; compound 10 μM,87%
same,survival,[6]; compound 20 μM,88%
same,survival,[7]; compound 10 μM,25%
same,survival,[7]; compound 20 μM,77%
same,survival,[7]; compound 40 μM,95%
same,Lox enzymatic activity,[8],did not affect Lox enzymatic activity; also recorded: does not inhibit
CCCCCCCCC=CCCCCCCCC(=O)NO [OA310],Relative to Oleic Acid,[2]; 10 μM,1.04 ± 0.04
CCCCCCCCC1OC1CCCCCCCC(=O)O (stereo not shown) [OA-50],Relative to Oleic Acid (change in survival compared to cells treated with 40 μM oleic acid),[1]; tested at 40 μM,0.15 ± 0.02
CCCCCCCCC(O)C(O)CCCCCCCC(=O)O (stereo not shown) [OA-81],Relative to Oleic Acid (change in survival compared to cells treated with 40 μM oleic acid),[1]; tested at 40 μM,0.14 ± 0.03
CCCCCCCCC1OC(C)(C)OC1CCCCCCCC(=O)O (stereo not shown) [OA-90],Relative to Oleic Acid (change in survival compared to cells treated with 40 μM oleic acid),[1]; tested at 40 μM,0.05 ± 0.02
CCCCCCCCC1OC2(CCCCC2)OC1CCCCCCCC(=O)O (stereo not shown) [OA-95],Relative to Oleic Acid (change in survival compared to cells treated with 40 μM oleic acid),[1]; tested at 40 μM,0.24 ± 0.04
"CCCCCCCC/C=C\CCCCCCCC(=O)C(F)(F)F [OA-210, (Z)-1,1,1-trifluorononadec-10-en-2-one]",Relative to Oleic Acid (change in survival compared to cells treated with 40 μM oleic acid),[1]; 10 μM printed beside the value,0.52 ± 0.13
same,toxicity,[1],slightly toxic
same,activity in dose response,[1],active
CCCCCCCC/C=C\CCCCCCCC(N)=O [Oleic Acid NH2],Relative to Oleic Acid,"[2]; tested at 40 μM, <0.5 toxic",0.79 ± 0.13
CCCCCCCC/C=C\CCCCCCCC(=O)OCC [Oleic Acid OEt],Relative to Oleic Acid,"[2]; tested at 40 μM, <0.5 toxic",0.77 ± 0.18
CCCCCCCC/C=C\CCCCCCCC(=O)OC [Oleic Acid OMe],Relative to Oleic Acid,"[2]; tested at 40 μM, <0.5 toxic",0.95 ± 0.12
CCCCCCCC/C=C\CCCCCCCC(=O)O [Oleic Acid],increase of survival,"[3]; compound 20 μM, 48 h",1.5 fold
same,cell survival,[9]; compound 5 μM,49%
same,cell survival,[9]; compound 10 μM,55%
same,cell survival,[9]; compound 20 μM,65%
same,effect on cell survival,"[2]; compound 16 μM, FAC+BSO",doubled cell survival
same,efficacy in FAC+BSO assay,[2]; compound 40 μM,doubled survival
same,EC50,"[2]; read-out: EC50 in the FAC+BSO in mouse fibroblasts assay, FAC+BSO",23 µM
same,Relative to Oleic Acid,"[2]; tested at 40 μM, <0.5 toxic",1.03 ± 0.04
same,increase of PGC1-α expression,[10],1.4 fold
same,rescue of cell viability,"[6]; compound 40 μM, 10 μM erastin for 24 h",did not rescue cell viability
CCCCCCCCCCCCCCCC(=O)O [Palmitic Acid],Relative to Oleic Acid,"[2]; tested at 40 μM, <0.5 toxic",0.18 ± 0.07
CCCCCC/C=C\CCCCCCCC(=O)O [Palmitoleic Acid],Relative to Oleic Acid,[2]; 20 μM,0.73 ± 0.04
same,efficacy in FAC+BSO assay,[2]; compound 40 μM,comparable to oleic acid
same,Relative to Oleic Acid,"[2]; tested at 40 μM, <0.5 toxic",0.77 ± 0.03
CCCCCCCCCCC/C=C\CCCCC(=O)O [Petrosenilic Acid],efficacy in FAC+BSO assay,[2]; compound 40 μM,comparable to oleic acid
same,Relative to Oleic Acid,"[2]; tested at 40 μM, <0.5 toxic",0.74 ± 0.04
"CCCCCCCC/C=C\CCCCCCC[C@H](O)C(F)(F)F [S-isomer, (S,Z)-1,1,1-trifluorononadec-10-en-2-ol]",activity,"[3]; compound between 20 and 5 μM, 48 h",no activity
same,activity,[1]; assay not given,inactive
same,activity,"[6]; any concentration, 10 μM erastin for 24 h",inactive
same,efficacy,"[7]; compound 5 μM, FAC and BSO",inefficacious
same,survival,[7]; compound 20 μM,10%
same,survival,[7]; compound 40 μM,22%
CCOC(=O)c1ccc(NC2CCCCC2)c(NCc2ccccc2)c1 [SRS11-92],cell death associated with frataxin knockdown,[11],decreased the cell death
CCCCCCCCCCCCCCCCCC(=O)O [Stearic Acid],effect on cell survival,"[2]; compound 16 μM, FAC+BSO",no effect
same,Relative to Oleic Acid,"[2]; tested at 40 μM, <0.5 toxic",0.50 ± 0.06
CCCCC/C=C\C/C=C\CCCCCCCC(=O)O [linoleic acid],cell viability,"[2]; compound 16 μM, FAC+BSO (alone 40% of control cells)",30 % of control cells
CCCCC/C=C\C/C=C\C/C=C\CCCCC(=O)O [γ-linolenic Acid],activity in FAC+BSO assay,[2],increased cell death
same,Relative to Oleic Acid,"[2]; tested at 40 μM, <0.5 toxic",0.16 ± 0.02
Heptadecenoic acid,Relative to Oleic Acid,[2]; 20 μM,0.7 ± 0.05
same,Relative to Oleic Acid,"[2]; tested at 40 μM, <0.5 toxic",0.83 ± 0.05
